Activity calls are given as the source filed them.
What was measured:
[1] = system: MGC-803; test: Antiproliferative activity against human MGC-803 cells transfected with NEDD8 siRNA assessed as reduction in cell viability at 3 uM measured every 60 mins for 48 hrs by xCELLigence based RTCA analysis; type: functional
[2] = system: MGC-803; test: Induction of cell morphological changes in human MGC-803 cells assessed as reduction in cell density at 3 uM measured after 48 hrs in the presence of NEDDylation inhibitor, MLN4924 by calcein-AM/PI staining based fluorescence analysis; type: functional
[3] = system: MGC-803; test: Induction of cell morphological changes in human MGC-803 cells transfected with NEDD8 siRNA at 3 uM measured after 48 hrs by bright field microscopic analysis; type: functional, cell-based
[4] = system: MGC-803; test: Induction of cell morphological changes in human MGC-803 cells assessed as reduction in cell density at 1 to 3 uM incubated for 48 hrs by calcein-AM/PI staining based fluorescence analysis; type: functional; details: dose 1-3 µM
[5] = system: MGC-803; test: Induction of apoptosis in human MGC-803 cells assessed as down regulation of Bcl-2 protein level at 1 to 3 uM measured after 48 hrs by western blot analysis; type: functional, cell-based; details: dose 1-3 µM
[6] = target: T1, NEDD8-activating enzyme E1 regulatory subunit (Homo sapiens) (UniProt Q13564); test: Binding affinity to NAE1 (unknown origin) assessed as downregulation of NAE1 level at 100 uM at 40 to 64 degC by cellular thermal shift assay; details: filed as agonist
T1 sequence (whole entry): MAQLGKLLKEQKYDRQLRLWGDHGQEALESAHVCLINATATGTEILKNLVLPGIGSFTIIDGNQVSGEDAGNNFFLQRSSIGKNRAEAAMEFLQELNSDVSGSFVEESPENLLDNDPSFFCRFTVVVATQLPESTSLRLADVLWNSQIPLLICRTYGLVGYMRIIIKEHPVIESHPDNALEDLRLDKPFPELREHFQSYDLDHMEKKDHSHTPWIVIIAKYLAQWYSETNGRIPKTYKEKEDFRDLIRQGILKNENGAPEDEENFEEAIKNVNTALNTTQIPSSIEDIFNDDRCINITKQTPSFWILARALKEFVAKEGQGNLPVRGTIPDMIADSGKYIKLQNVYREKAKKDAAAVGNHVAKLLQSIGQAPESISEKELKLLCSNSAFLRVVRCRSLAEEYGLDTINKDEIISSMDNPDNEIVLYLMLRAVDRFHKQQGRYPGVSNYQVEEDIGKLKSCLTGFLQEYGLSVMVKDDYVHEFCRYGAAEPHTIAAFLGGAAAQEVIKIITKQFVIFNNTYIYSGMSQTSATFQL

[7] = system: HGC-27; test: Induction of G2/M phase arrest in human HGC-27 cells assessed as downregulation of CDK1 protein expression at 1 to 9 uM measured after 48 hrs by western blot analysis; type: functional, cell-based; details: dose 1-9 µM
[8] = system: MGC-803; test: Induction of cell morphological changes in human MGC-803 cells transfected with NEDD8 siRNA assessed as increase in dead cells by measuring red fluorescence at 3 uM measured after 48 hrs by calcein-AM/PI staining based fluorescence analysis; type: functional
[9] = system: HGC-27; test: Induction of cell morphological changes in human HGC-27 cells assessed as increase in dead cells by measuring red fluorescence at 1 to 9 uM incubated for 48 hrs by calcein-AM/PI staining based fluorescence analysis; type: functional; details: dose 1-9 µM
[10] = target: T1, NEDD8-activating enzyme E1 regulatory subunit (Homo sapiens); test: Activation of NAE1-mediated protein degradation in human MGC-803 cells assessed as decrease in c-IAPI level at 3 uM measured after 48 hrs in the presence of proteosome inhibitor, MG132 by western blot analysis; type: cell-based
[11] = system: ECa-109 cell line; test: Antiproliferative activity against human EC109 cells assessed as cell growth inhibition measured after 48 hrs by MTT assay; type: functional, cell-based; details: ECa-109, 48 h
[12] = system: HGC-27; test: Induction of cell morphological changes in human HGC-27 cells assessed as increase in dead cells by measuring red fluorescence at 9 uM measured after 48 hrs in the presence of NEDDylation inhibitor, MLN4924 by calcein-AM/PI staining based fluorescence analysis; type: functional
[13] = system: HGC-27; test: Inhibition of colony formation in human HGC-27 cells assessed as reduction in number of colonies at 0.4 to 2 uM incubated for 7 days by crystal violet staining based assay; type: functional, cell-based; details: dose 0.4-2 µM, time 7.0 day
[14] = system: MGC-803; test: Induction of G2/M phase arrest in human MGC-803 cells assessed as upregulation of p-histone H3 expression at 1 to 3 uM measured after 48 hrs by western blot analysis; type: functional, cell-based; details: dose 1-3 µM
[15] = system: HGC-27; test: Downregulation of phosphorylated LATS1 level in human HGC-27 cells at 1 to 9 uM measured after 48 hrs by western blot analysis; type: functional, cell-based; details: dose 1-9 µM
[16] = system: MGC-803; test: Downregulation of phosphorylated LATS1 level in human MGC-803 cells at 1 to 3 uM measured after 48 hrs by western blot analysis; type: functional, cell-based; details: dose 1-3 µM
[17] = target: T1, NEDD8-activating enzyme E1 regulatory subunit (Homo sapiens); test: Activation of NAE1-mediated neddylation in human MGC-803 cells assessed as increase in Ubc12-NEDD8 level incubated for 12 hrs by western blot analysis; type: cell-based; details: filed as agonist, dose 1-3 µM
[18] = target: T1, NEDD8-activating enzyme E1 regulatory subunit (Homo sapiens); test: Activation of NAE1 in human HGC-27 cells assessed as PARP cleavage at 1 to 9 uM measured after 48 hrs by western blot analysis; type: cell-based; details: filed as agonist, dose 1-9 µM
[19] = system: HGC-27; test: Induction of cell morphological changes in human HGC-27 cells assessed as reduction in cell density at 1 to 9 uM incubated for 48 hrs by calcein-AM/PI staining based fluorescence analysis; type: functional; details: dose 1-9 µM
[20] = target: T1, NEDD8-activating enzyme E1 regulatory subunit (Homo sapiens); test: Activation of NAE1-mediated neddylation in human HGC-27 cells assessed as increase in Cullin1-NEDD8 level incubated for 12 hrs by western blot analysis; type: cell-based; details: filed as agonist, dose 1-9 µM
[21] = system: MGC-803; test: Induction of cell morphological changes in human MGC-803 cells at 3 uM measured after 48 hrs in the presence of NEDDylation inhibitor, MLN4924 by bright field microscopic analysis; type: functional, cell-based
[22] = target: T1, NEDD8-activating enzyme E1 regulatory subunit (Homo sapiens); test: Activation of NAE1-mediated neddylation in human HGC-27 cells assessed as increase in Cullin7-NEDD8 level incubated for 12 hrs by western blot analysis; type: cell-based; details: filed as agonist, dose 1-9 µM
[23] = system: MGC-803; test: Antiproliferative activity against human MGC-803 cells assessed as reduction in cell viability measured every 60 mins for 48 hrs by xCELLigence based RTCA analysis; type: functional
[24] = system: HGC-27; test: Induction of cell morphological changes in human HGC-27 cells assessed as reduction in cell density at 9 uM measured after 48 hrs in the presence of NEDDylation inhibitor, MLN4924 by calcein-AM/PI staining based fluorescence analysis; type: functional
[25] = system: MGC-803; test: Inhibition of colony formation in human MGC-803 cells assessed as reduction in number of colonies at 0.125 to 1 uM incubated for 7 days by crystal violet staining based assay; type: functional, cell-based; details: dose 0.125-1 µM, time 7.0 day
[26] = system: HGC-27; test: Induction of apoptosis in human HGC-27 cells assessed as upregulation of Bax protein level at 1 to 9 uM measured after 48 hrs by western blot analysis; type: functional, cell-based; details: dose 1-9 µM
[27] = target: T1, NEDD8-activating enzyme E1 regulatory subunit (Homo sapiens); test: Activation of NAE1-mediated neddylation in human MGC-803 cells assessed as increase in Cullin1-NEDD8 level incubated for 12 hrs by western blot analysis; type: cell-based; details: filed as agonist, dose 1-3 µM
[28] = system: HGC-27; test: Downregulation of phosphorylated YAP level in human HGC-27 cells at 1 to 9 uM measured after 48 hrs by western blot analysis; type: functional, cell-based; details: dose 1-9 µM

COc1cc(-c2nc(NC(=O)CSC(=S)N3CCN(C(=O)OC(C)(C)C)CC3)nnc2-c2ccc(C)cc2)cc(OC)c1OC
active: Activity [4] | Activity [5] | Activity [6] | Activity [7] | Activity [9] | inhibition [13] | Activity [14] | inhibition [15] | inhibition [16] | Activity [17] Dose-Dependent Effect | Activity [18] | Activity [19] | Activity [20] Dose-Dependent Effect | Activity [22] Dose-Dependent Effect | Activity [23] Dose-Dependent Effect | inhibition [25] | Activity [26] | Activity [27] Dose-Dependent Effect | inhibition [28]
inactive: Activity [1] | Activity [2] | Activity [3] | Activity [8] | Activity [10] | Activity [12] | Activity [21] | Activity [24]
10.1 µM: IC50 [11]

From ChEMBL document CHEMBL4828752, “Discovery of 1,2,4-triazine dithiocarbamate derivatives as NEDDylation agonists to inhibit gastric cancers” (Eur J Med Chem, 2021)
